In US11345703B2, “Substituted pyrazolo[1,5-a]pyrimidine macrocyclic compound” (SHENZHEN TARGETRX, INC., priority 2018, dated 2022):

Columns and labels:
[1] = Metabolic stability, rat liver microsome test; format: in vitro ADME; conditions: SD, liver microsomes, pH 7.4, 1 μM compound, 0.5 mg/mL protein, 37° C.; for half-life at 1 μM: read-out: rat liver microsome test t1/2(min)
Description: (§1) Microsome tests: human liver microsomes: 0.5 mg/mL, Xenotech; rat liver microsomes: 0.5 mg/mL, Xenotech; coenzyme (NADPH/NADH): 1 mM, Sigma Life Science; magnesium chloride: 5 mM, 100 mM phosphate buffer agent (pH 7.4).
(§2) Preparation of the stock solution: A certain amount of the powder of the example compounds was accurately weighed and dissolved to 5 mM with DMSO.
(§3) Preparation of phosphate buffer (100 mM, pH 7.4): 150 mL of pre-prepared 0.5 M potassium dihydrogen phosphate solution was mixed with 700 mL of pre-prepared 0.5 M dipotassium hydrogen phosphate solution, and the pH of the mixture was adjusted with 0.5 M dipotassium hydrogen phosphate solution to 7.4. It was diluted 5 times with ultrapure water before use, and magnesium chloride was added to obtain a phosphate buffer (100 mM) containing 100 mM potassium phosphate, 3.3 mM magnesium chloride, and a pH of 7.4.
(§4) A solution of NADPH regeneration system (containing 6.5 mM NADP, 16.5 mM G-6-P, 3 U/mL G-6-P D, 3.3 mM magnesium chloride) was prepared and placed on wet ice before use.
(§5) Preparation of stop solution: acetonitrile solution containing 50 ng/mL propranolol hydrochloride and 200 ng/mL tolbutamide (internal standard). 25057.5 μL of phosphate buffer (pH 7.4) was taken into a 50 mL centrifuge tube, 812.5 μL of human liver microsomes was added respectively, and mixed uniformly to obtain a liver microsome dilution with a protein concentration of 0.625 mg/mL. 25057.5 μL of phosphate buffer (pH 7.4) was taken into a 50 mL centrifuge tube, and 812.5 μL of SD rat liver microsomes was added respectively, and mixed uniformly to obtain a liver microsome dilution with a protein concentration of 0.625 mg/mL.
(§6) Incubation of the sample: The stock solutions of the corresponding compounds were diluted to 0.25 mM as working solutions with an aqueous solution containing 70% acetonitrile before use. 398 μL of human liver microsome or rat liver microsome dilutions were added to 96-well incubation plates (N=2), and 2 μL of 0.25 mM working solutions were added and mixed uniformly, respectively.
(§7) Determination of metabolic stability: 300 μL of pre-cooled stop solution was added to each well of a 96-well deep well plate, which was placed on ice as a stop plate. The 96-well incubation plate and the NADPH regeneration system were placed in a 37° C. water bath, shaken at 100 rpm, and pre-incubated for 5 min. 80 μL of the incubation solution was removed from each well of the incubation plate, added to the stop plate, and mixed uniformly, and 20 μL of the NADPH regeneration system solution was supplemented as a sample at 0 min. Then, 80 μL of the NADPH regeneration system solution was added to each well of the incubation plate to start the reaction and the timing was started. […] 100 μL of the reaction solution was removed at 10, 30, and 90 min of the reaction, respectively, and added to the stop plate, and the reaction was terminated by vortexing for 3 min. The stop plate was centrifuged at 5000×g for 10 min at 4° C. 100 μL of the supernatant was removed into a 96-well plate to which 100 μL of distilled water was previously added, mixed uniformly, and sample analysis was performed by LC-MS/MS.
(§8) Data analysis: The peak areas of the corresponding compounds and the internal standard were detected by LC-MS/MS system, and the ratios of the peak areas of the compounds to the internal standard were calculated.
(§9) The metabolic stability in human and rat liver microsomes was evaluated by simultaneously testing and comparing the compounds of the present invention and the compound without deuteration. The non-deuterated compound LOXO-195 was used as a control.

[2] = Metabolic stability, human liver microsome test; format: in vitro ADME; conditions: liver microsomes, pH 7.4, 1 μM compound, 0.5 mg/mL protein, 37° C.; for half-life at 1 μM: read-out: human liver microsome test t1/2(min)
Description: as §1, §2, §3, §4, §5, §6, §7, §8, §9

KM12 (TPM3-TRKA) cells = assay: Cytotoxicity test, inhibition of KM12 cell proliferation (CellTiter-Glo); format: cell-based; conditions: Homo sapiens, 72 h, 3 days incubation
Description: The inhibitory effect of the example compounds on the activity of KM12 (TPM3-TRKA) cells was examined.
Experimental methods: 1. Preparation of cell plates—KM12 cells were separately seeded in 96-well plates, and 8 ng/ml IL-3 was added to KM12 cells, and the cell plates were incubated in a carbon dioxide incubator overnight. 2. The test compound was dissolved in DMSO and subjected to a 3.16-fold gradient dilution with 9 compound concentrations in triplicate. 3. Compound Treatment of Cells—The compounds were transferred to cell plates at a starting concentration of 10 μM. The cell plates were incubated in a carbon dioxide incubator for 3 days. 4. Detection—The CellTiter-Glo reagent was added to the cell plate and incubated for 30 minutes at room temperature to stabilize the luminescence signal. Readings were performed using a PerkinElmer Envision multi-label analyzer.

Row | Compound | microsomal CLint at 1 μM [1] [µL/min/mg] | half-life at 1 μM [1] [min] | microsomal CLint at 1 μM [2] [µL/min/mg] | half-life at 1 μM [2] [min] | IC50 (KM12 (TPM3-TRKA) cells) [nM]
1 | [2H]C([2H])([2H])C1([2H])CCc2ncc(F)cc2C2CCCN2c2ccn3ncc(c3n2)C(=O)N1 (racemic) [Compound 70, 9-fluoro-15-(methyl-d3)-2,11,16,20,21,24-hexaazapentocyclo[16.5.2.0^2,6,0^7,12,0^21,25]pentacosane-1(24),7,9,11,18(25),19,22-heptaene-17-one-15-d] | 35.5 | 39.1 | 78.7 | 17.6 | –
2 | [2H]C1([2H])c2ncc(F)cc2C2CCCN2c2ccn3ncc(c3n2)C(=O)N[C@H](C)C1([2H])[2H] (stereo partly drawn) [Compound 13, (15R)-9-fluoro-15-methyl-2,11,16,20,21,24-hexaazapentocyclo[16.5.2.0^2,6,0^7,12,0^21,25]pentacosane-1(24),7,9,11,18(25),19,22-heptaene-17-one-13,13,14,14-d4] | 23.3 | 59.4 | 38.5 | 36 | –
3 | [2H]C1([2H])c2ncc(F)cc2[C@H]2CCCN2c2ccn3ncc(c3n2)C(=O)N[C@H](C)C1([2H])[2H] [Compound L-1-a, (6R,15R)-9-fluoro-15-methyl-2,11,16,20,21,24-hexaazapentocyclo[16.5.2.0^2,6,0^7,12,0^21,25]pentacosane-1(24),7,9,11,18(25),19,22-heptaene-17-one-13,13,14,14-d4] | 44.2 | 31.3 | 56.5 | 24.5 | –
4 | [2H]C1([2H])c2ncc(F)cc2[C@@H]2CCCN2c2ccn3ncc(c3n2)C(=O)N[C@H](C)C1([2H])[2H] [Compound L-1-b, (6S,15R)-9-fluoro-15-methyl-2,11,16,20,21,24-hexaazapentocyclo[16.5.2.0^2,6,0^7,12,0^21,25]pentacosane-1(24),7,9,11,18(25),19,22-heptaene-17-one-13,13,14,14-d4] | 75.1 | 18.5 | 49.8 | 27.8 | –
5 | [2H]C1([2H])CCN2c3ccn4ncc(c4n3)C(=O)N[C@H](C)CCc3ncc(F)cc3[C@]21[2H] [Compound L-2-a, (6R,15R)-9-fluoro-15-methyl-2,11,16,20,21,24-hexaazapentocyclo[16.5.2.0^2,6,0^7,12,0^21,25]pentacosane-1(24),7,9,11,18(25),19,22-heptaene-17-one-5,5,6-d3] | 45.6 | 30.4 | 79.6 | 17.4 | 2.51
6 | [2H]C1([2H])CCN2c3ccn4ncc(c4n3)C(=O)N[C@H](C)CCc3ncc(F)cc3[C@@]21[2H] [Compound L-2-b, (6S,15R)-9-fluoro-15-methyl-2,11,16,20,21,24-hexaazapentocyclo[16.5.2.0^2,6,0^7,12,0^21,25]pentacosane-1(24),7,9,11,18(25),19,22-heptaene-17-one-5,5,6-d3] | 57.9 | 23.9 | 55.2 | 25.1 | –
7 | C[C@@H]1CCc2ncc(F)cc2C2CCCN2c2ccn3ncc(c3n2)C(=O)N1 (some centres unmarked) [Compound Φ, reference compound] | 59.5 | 23.3 | 94.3 | 14.7 | –
8 | C[C@@H]1CCc2ncc(F)cc2[C@H]2CCCN2c2ccn3ncc(c3n2)C(=O)N1 [Compound Φ-a, (6R,15R)-9-fluoro-15-methyl-2,11,16,20,21,24-hexaazapentocyclo[16.5.2.0^2,6,0^7,12,0^21,25]pentacosane-1(24),7,9,11,18(25),19,22-heptaene-17-one, reference compound] | 83.2 | 16.7 | 108 | 12.9 | 2.56
9 | C[C@@H]1CCc2ncc(F)cc2[C@@H]2CCCN2c2ccn3ncc(c3n2)C(=O)N1 [Φ-b, reference compound] | 79.2 | 17.5 | 78.4 | 17.7 | –
